Values joined by “and” are separate entries in the source; they are usually repeats but may differ in a detail not shown here. Equal entries are not always repeated. Inconclusive results and toxic doses are left out. Numbered stars: 1 amine (or outer) side, 2 acyl side, 3 side chain; on linkers, the order of the positions; unused ones are H or OH. Peptide text beside a SMILES is read from it. * marks the point of attachment. ξ: configuration not given here. ξγGlu = O=C(O)C(CCC(=O)[*:2])N[*:1]; Cbz = O=C(OCc1ccccc1)*
System: BDF1 mice, B16 melanoma ip, median survival T/C
Assay: NCI In Vivo Anticancer Drug Screen. Data for tumor model B16 Melanoma (intraperitoneal) in B6D2F1 (BDF1) mice
Conditions: endpoint: median survival time, higher = longer survival
How it was run: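 The ratio T/C compares compound-treated mice with vehicle-treated controls, using survival or tumor size as the endpoint in a transplantable tumor model.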

[1] = dose: 1.0 mg/kg/injection, schedule: Q01DX009 (ip), vehicle: saline with Tween-80
[2] = dose: 2.0 mg/kg/injection, schedule: Q01DX009 (ip), vehicle: saline with Tween-80
[3] = dose: 100.0 mg/kg/injection, schedule: Q01DX009 (ip), vehicle: Klucel (hydroxypropylcellulose) (HPC)
[4] = dose: 200.0 mg/kg/injection, schedule: Q01DX009 (ip), vehicle: Klucel (hydroxypropylcellulose) (HPC)
[5] = dose: 400.0 mg/kg/injection, schedule: Q01DX009 (ip), vehicle: Klucel (hydroxypropylcellulose) (HPC)
[6] = dose: 12.5 mg/kg/injection, schedule: Q01DX009 (ip), vehicle: saline with Tween-80
[7] = dose: 25.0 mg/kg/injection, schedule: Q01DX009 (ip), vehicle: saline with Tween-80
[8] = dose: 50.0 mg/kg/injection, schedule: Q01DX009 (ip), vehicle: saline with Tween-80
[9] = dose: 100.0 mg/kg/injection, schedule: Q01DX009 (ip), vehicle: saline with Tween-80

In the case of `O=NN(CCCl)C(=O)NCC1CCC(CNC(=O)N(CCCl)N=O)CC1` (stereo not drawn), the T/C (dose: 17.0 mg/kg/injection, schedule: Q01DX009 (ip), vehicle: saline) is reported as 122 % of control, the T/C (dose: 33.0 mg/kg/injection, schedule: Q01DX009 (ip), vehicle: saline) is reported as 152 % of control and the T/C (dose: 65.0 mg/kg/injection, schedule: Q01DX009 (ip), vehicle: saline) is reported as 184 % of control. The T/C (dose: 130.0 mg/kg/injection, schedule: Q01DX009 (ip), vehicle: saline) was 193 % of control.
With `Cc1ccc(NC(=O)NC(C)C)c(C)c1` the T/C (dose: 6.25 mg/kg/injection, schedule: Q01DX009 (ip), vehicle: Klucel (hydroxypropylcellulose) (HPC)) was 101 % of control, the T/C (dose: 12.5 mg/kg/injection, schedule: Q01DX009 (ip), vehicle: Klucel (hydroxypropylcellulose) (HPC)) was 95 % of control and the T/C (dose: 25.0 mg/kg/injection, schedule: Q01DX009 (ip), vehicle: Klucel (hydroxypropylcellulose) (HPC)) was 94 % of control.
For `COc1ccc(CC2C(=O)NC(C)C(=O)N(C)C3C(=O)N(C)C(Cc4ccc(O)c(c4)Oc4ccc(cc4)C3O)C(=O)NC(C)C(=O)NC(C)C(=O)N2C)cc1` (stereo not drawn) (tested in a mixture with another compound), the T/C (dose: 0.12 mg/kg/injection, schedule: Q01DX009 (ip), vehicle: other) was 97 % of control, the T/C (dose: 0.25 mg/kg/injection, schedule: Q01DX009 (ip), vehicle: other) was 109 % of control and the T/C (dose: 0.5 mg/kg/injection, schedule: Q01DX009 (ip), vehicle: other) was 161 % of control. For the same compound, the T/C (dose: 1.0 mg/kg/injection, schedule: Q01DX009 (ip), vehicle: other) was 152 % of control, the T/C [1] was 154 % of control and the T/C [2] was 157 % of control. The T/C (dose: 250.0 micrograms/kg/injection, schedule: Q01DX009 (ip), vehicle: saline) was 152 % of control and the T/C (dose: 2000.0 micrograms/kg/injection, schedule: Q01DX009 (ip), vehicle: saline) was 154 % of control.
For `O=S(=O)(Nc1ccc(F)cc1)c1ccccc1`, the T/C [3] was 96 % of control, the T/C [4] was 99 % of control and the T/C [5] was 97 % of control.
With `Nc1ncnc2c1ncn2C1OC(CO)CC1O` (stereo not drawn) the T/C (dose: 18.75 mg/kg/injection, schedule: Q01DX009 (ip), vehicle: Klucel (hydroxypropylcellulose) (HPC)) was 113 % of control, the T/C (dose: 37.5 mg/kg/injection, schedule: Q01DX009 (ip), vehicle: Klucel (hydroxypropylcellulose) (HPC)) was 112 % of control and 119 % of control and the T/C (dose: 75.0 mg/kg/injection, schedule: Q01DX009 (ip), vehicle: Klucel (hydroxypropylcellulose) (HPC)) was 104 % of control and 115 % of control.
With `C[C@]12CCC(=O)C=C1CC[C@@H]1[C@@H]2C(=O)C[C@]2(C)C3=CC(=O)O[C@H]3C[C@@H]12` the T/C [6] was 100 % of control and the T/C [7] was 100 % of control.
For `CC(C)CC(NC(=O)C(Cc1ccccc1)NC(=O)OCc1ccccc1)C(=O)O` (stereo not drawn) (Cbz-Phe-Leu-OH; configuration not given here), the T/C [7] was 92 % of control, the T/C [8] was 93 % of control and the T/C [9] was 90 % of control. The T/C (dose: 200.0 mg/kg/injection, schedule: Q01DX009 (ip), vehicle: saline with Tween-80) was 87 % of control.
In the case of `NC(CCC(=O)NCC(=O)NCC(=O)O)C(=O)O` (stereo not drawn) (ξγGlu-Gly-Gly-OH), the T/C (dose: 50.0 mg/kg/injection, schedule: Q01DX009 (ip), vehicle: saline) is reported as 106 % of control, the T/C (dose: 100.0 mg/kg/injection, schedule: Q01DX009 (ip), vehicle: saline) is reported as 97 % of control and the T/C (dose: 200.0 mg/kg/injection, schedule: Q01DX009 (ip), vehicle: saline) is reported as 102 % of control. For the same compound, the T/C (dose: 400.0 mg/kg/injection, schedule: Q01DX009 (ip), vehicle: saline) was 91 % of control.
With `NCCCNCCCCNC(=O)C(O)NC(=O)CCCCCCN=C(N)N` (stereo not drawn) the T/C (dose: 6.0 mg/kg/injection, schedule: Q01DX009 (ip), vehicle: saline) was 96 % of control, the T/C (dose: 12.0 mg/kg/injection, schedule: Q01DX009 (ip), vehicle: saline) was 96 % of control and the T/C (dose: 24.0 mg/kg/injection, schedule: Q01DX009 (ip), vehicle: saline) was 93 % of control. The T/C (dose: 48.0 mg/kg/injection, schedule: Q01DX009 (ip), vehicle: saline) was 100 % of control.
For `CCCCCCCCCCCCCCCC(C)(C)O`, the T/C [3] was 100 % of control, the T/C [4] was 100 % of control and the T/C [5] was 86 % of control.
In the case of `Cc1ccc(C2NC(=O)c3ccccc3N2)s1` (stereo not drawn), the T/C (dose: 50.0 mg/kg/injection, schedule: Q01DX009 (ip), vehicle: Klucel (hydroxypropylcellulose) (HPC)) is reported as 99 % of control, the T/C [3] is reported as 102 % of control and the T/C [4] is reported as 105 % of control. For the same compound, the T/C [5] was 96 % of control.
`CC(C)CC(NC(=O)CCl)C(=O)O` (stereo not drawn) was tested, and the T/C (dose: 6.25 mg/kg/injection, schedule: Q01DX009 (ip), vehicle: saline with Tween-80) was 110 % of control, the T/C [6] was 95 % of control and the T/C [7] was 95 % of control.
`COc1cc2cc(c1Cl)N(C)C(=O)CC(OC(=O)CC(C)C)C1(C)OC1C(C)C1CC(O)(NC(=O)O1)C(OC)/C=C/C=C(C)C2` (stereo not drawn) was tested, and the T/C (dose: 3.1 micrograms/kg/injection, schedule: Q01DX009 (ip), vehicle: saline + alcohol) was 122 % of control, the T/C (dose: 6.25 micrograms/kg/injection, schedule: Q01DX009 (ip), vehicle: saline + alcohol) was 150 % of control and 160 % of control and the T/C (dose: 12.5 micrograms/kg/injection, schedule: Q01DX009 (ip), vehicle: saline + alcohol) was 157 % of control and 169 % of control and 173 % of control. The T/C (dose: 15.0 micrograms/kg/injection, schedule: Q01DX009 (ip), vehicle: saline + alcohol) was 170 % of control, the T/C (dose: 25.0 micrograms/kg/injection, schedule: Q01DX009 (ip), vehicle: saline + alcohol) was 164 % of control and 168 % of control and 183 % of control and the T/C (dose: 30.0 micrograms/kg/injection, schedule: Q01DX009 (ip), vehicle: saline + alcohol) was 179 % of control. For the same compound, the T/C (dose: 50.0 micrograms/kg/injection, schedule: Q01DX009 (ip), vehicle: saline + alcohol) was 163 % of control and the T/C (dose: 60.0 micrograms/kg/injection, schedule: Q01DX009 (ip), vehicle: saline + alcohol) was 191 % of control.
`O=[N+]([O-])c1ccc(Cl)c2c([N+](=O)[O-])cccc12` was tested, and the T/C [6] was 100 % of control, the T/C [7] was 91 % of control and the T/C [8] was 93 % of control and 94 % of control.
In the case of `CCCCCc1cc(/C=C2/N=C(c3ccc[nH]3)C=C2OC)[nH]c1C`, the T/C (dose: 0.25 mg/kg/injection, schedule: Q01DX009 (ip), vehicle: saline with Tween-80) is reported as 98 % of control, the T/C (dose: 0.5 mg/kg/injection, schedule: Q01DX009 (ip), vehicle: saline with Tween-80) is reported as 100 % of control and the T/C [1] is reported as 102 % of control. For the same compound, the T/C [2] was 107 % of control and the T/C (dose: 4.0 mg/kg/injection, schedule: Q01DX009 (ip), vehicle: saline with Tween-80) was 110 % of control.
In the case of `CS(=O)(=O)c1cc(C(F)(F)F)cc([N+](=O)[O-])c1Cl`, the T/C [7] is reported as 89 % of control, the T/C [8] is reported as 95 % of control and the T/C [9] is reported as 95 % of control.
In the case of `CC[CH2][Pb]([Cl])([CH2]CC)[CH2]CC`, the T/C (dose: 0.09 mg/kg/injection, schedule: Q01DX009 (ip), vehicle: DMSO) is reported as 100 % of control, the T/C (dose: 0.18 mg/kg/injection, schedule: Q01DX009 (ip), vehicle: DMSO) is reported as 92 % of control and the T/C (dose: 0.37 mg/kg/injection, schedule: Q01DX009 (ip), vehicle: DMSO) is reported as 95 % of control. The T/C (dose: 0.75 mg/kg/injection, schedule: Q01DX009 (ip), vehicle: DMSO) was 95 % of control and the T/C (dose: 1.5 mg/kg/injection, schedule: Q01DX009 (ip), vehicle: DMSO) was 92 % of control.
For `CC(=O)OCC1OC(OC(C)=O)C(NC(=O)N(CCCl)N=O)C(OC(C)=O)C1OC(C)=O` (stereo not drawn), the T/C (dose: 0.75 mg/kg/injection, schedule: Q01DX009 (ip), vehicle: Klucel (hydroxypropylcellulose) (HPC)) was 162 % of control, the T/C (dose: 1.0 mg/kg/injection, schedule: Q01DX009 (ip), vehicle: Klucel (hydroxypropylcellulose) (HPC)) was 152 % of control and the T/C (dose: 1.5 mg/kg/injection, schedule: Q01DX009 (ip), vehicle: Klucel (hydroxypropylcellulose) (HPC)) was 180 % of control. The T/C (dose: 2.0 mg/kg/injection, schedule: Q01DX009 (ip), vehicle: Klucel (hydroxypropylcellulose) (HPC)) was 188 % of control and 287 % of control, the T/C (dose: 3.0 mg/kg/injection, schedule: Q01DX009 (ip), vehicle: Klucel (hydroxypropylcellulose) (HPC)) was 208 % of control and the T/C (dose: 4.0 mg/kg/injection, schedule: Q01DX009 (ip), vehicle: Klucel (hydroxypropylcellulose) (HPC)) was 232 % of control.
`COc1cccc2c1C(=O)c1c(O)c3c(c(O)c1C2=O)C[C@@](O)(C(=O)CO)C[C@@H]3OC1CC([N+](C)(C)C)C(O)C(C)O1` (stereo partly drawn) was tested, and the T/C (dose: 4.32 mg/kg/injection, schedule: Q04DX003 (ip), vehicle: water) was 108 % of control and 110 % of control, the T/C (dose: 6.48 mg/kg/injection, schedule: Q01DX001 (ip), vehicle: water) was 107 % of control and 119 % of control and the T/C (dose: 7.2 mg/kg/injection, schedule: Q04DX003 (ip), vehicle: water) was 116 % of control and 119 % of control. For the same compound, the T/C (dose: 10.8 mg/kg/injection, schedule: Q01DX001 (ip), vehicle: water) was 103 % of control and 123 % of control, the T/C (dose: 12.0 mg/kg/injection, schedule: Q04DX003 (ip), vehicle: water) was 108 % of control and 112 % of control and the T/C (dose: 18.0 mg/kg/injection, schedule: Q01DX001 (ip), vehicle: water) was 105 % of control. The T/C (dose: 20.0 mg/kg/injection, schedule: Q04DX003 (ip), vehicle: water) was 107 % of control and the T/C (dose: 30.0 mg/kg/injection, schedule: Q01DX001 (ip), vehicle: water) was 102 % of control and 113 % of control.

— PubChem BioAssay AID192 (DTP/NCI, 2004)
